Results on eleven compounds are retold here after patent US20260356830A1, “COMPOUNDS FOR MODULATING RET PROTEIN” (Bristol-Myers Squibb Company, priority 2022, published 2026).

The experiment concerns the target T1, CCDC6-RET (Homo sapiens, UniProt P07949+Q16204+Q96SW2).
T1 construct: CCDC6 (natural N-terminal fusion partner, UniProt Q16204); endogenous in cells; host or cells: TPC-1 (parental, papillary thyroid carcinoma)
In words: Cellular RET degradation, AlphaLISA, TPC-1 cell line. The format is cell-based. As to conditions: for Dmax: TPC1, human, 24 h, read-out: Cell Density TPC-1/CCDC6-RET Ymax %; for DC50: read-out: Cell Density TPC-1/CCDC6-RET DC50, half-maximal degradation concentration, TPC-1 (CCDC6-RET), 24 hrs. The gist of the method:
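TPC-1 papillary thyroid carcinoma cells (endogenous CCDC6-RET) in DMEM with 2% FBS, compound-treated 24 h at 37 °C. RET in lysates quantified by AlphaLISA luminescence, normalized to media-only and DMSO wells; DC50 and maximal degradation from 4-parameter logistic fit.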

T1 sequence (Q16204+P07949 fused): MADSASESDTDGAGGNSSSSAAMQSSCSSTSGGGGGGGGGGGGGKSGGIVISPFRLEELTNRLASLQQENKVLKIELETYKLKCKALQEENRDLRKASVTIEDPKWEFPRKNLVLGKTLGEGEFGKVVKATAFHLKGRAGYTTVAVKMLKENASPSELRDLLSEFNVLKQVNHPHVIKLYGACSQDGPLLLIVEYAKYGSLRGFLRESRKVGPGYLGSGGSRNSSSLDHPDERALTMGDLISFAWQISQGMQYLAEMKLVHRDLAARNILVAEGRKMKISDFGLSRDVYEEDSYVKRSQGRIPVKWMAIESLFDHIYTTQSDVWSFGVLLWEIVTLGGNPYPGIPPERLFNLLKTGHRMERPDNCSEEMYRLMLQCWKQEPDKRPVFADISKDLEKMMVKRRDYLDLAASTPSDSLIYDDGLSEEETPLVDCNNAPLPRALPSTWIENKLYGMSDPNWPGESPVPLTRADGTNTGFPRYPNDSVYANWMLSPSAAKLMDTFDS
T1 sequence (Q96SW2 whole entry, the tested form may be a part): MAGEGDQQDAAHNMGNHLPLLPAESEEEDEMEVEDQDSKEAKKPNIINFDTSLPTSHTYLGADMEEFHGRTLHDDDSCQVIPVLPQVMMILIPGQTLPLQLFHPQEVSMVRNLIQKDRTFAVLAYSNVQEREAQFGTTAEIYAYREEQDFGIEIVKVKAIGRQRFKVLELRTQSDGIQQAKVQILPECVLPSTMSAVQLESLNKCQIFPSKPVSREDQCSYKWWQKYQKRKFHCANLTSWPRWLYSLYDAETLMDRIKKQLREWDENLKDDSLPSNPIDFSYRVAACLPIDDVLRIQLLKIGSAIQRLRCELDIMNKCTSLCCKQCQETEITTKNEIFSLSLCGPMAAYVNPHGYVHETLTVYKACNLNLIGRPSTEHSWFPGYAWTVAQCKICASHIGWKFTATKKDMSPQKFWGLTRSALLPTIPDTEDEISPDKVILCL
T1 sequence (Q16531 whole entry partner, the tested form may be a part): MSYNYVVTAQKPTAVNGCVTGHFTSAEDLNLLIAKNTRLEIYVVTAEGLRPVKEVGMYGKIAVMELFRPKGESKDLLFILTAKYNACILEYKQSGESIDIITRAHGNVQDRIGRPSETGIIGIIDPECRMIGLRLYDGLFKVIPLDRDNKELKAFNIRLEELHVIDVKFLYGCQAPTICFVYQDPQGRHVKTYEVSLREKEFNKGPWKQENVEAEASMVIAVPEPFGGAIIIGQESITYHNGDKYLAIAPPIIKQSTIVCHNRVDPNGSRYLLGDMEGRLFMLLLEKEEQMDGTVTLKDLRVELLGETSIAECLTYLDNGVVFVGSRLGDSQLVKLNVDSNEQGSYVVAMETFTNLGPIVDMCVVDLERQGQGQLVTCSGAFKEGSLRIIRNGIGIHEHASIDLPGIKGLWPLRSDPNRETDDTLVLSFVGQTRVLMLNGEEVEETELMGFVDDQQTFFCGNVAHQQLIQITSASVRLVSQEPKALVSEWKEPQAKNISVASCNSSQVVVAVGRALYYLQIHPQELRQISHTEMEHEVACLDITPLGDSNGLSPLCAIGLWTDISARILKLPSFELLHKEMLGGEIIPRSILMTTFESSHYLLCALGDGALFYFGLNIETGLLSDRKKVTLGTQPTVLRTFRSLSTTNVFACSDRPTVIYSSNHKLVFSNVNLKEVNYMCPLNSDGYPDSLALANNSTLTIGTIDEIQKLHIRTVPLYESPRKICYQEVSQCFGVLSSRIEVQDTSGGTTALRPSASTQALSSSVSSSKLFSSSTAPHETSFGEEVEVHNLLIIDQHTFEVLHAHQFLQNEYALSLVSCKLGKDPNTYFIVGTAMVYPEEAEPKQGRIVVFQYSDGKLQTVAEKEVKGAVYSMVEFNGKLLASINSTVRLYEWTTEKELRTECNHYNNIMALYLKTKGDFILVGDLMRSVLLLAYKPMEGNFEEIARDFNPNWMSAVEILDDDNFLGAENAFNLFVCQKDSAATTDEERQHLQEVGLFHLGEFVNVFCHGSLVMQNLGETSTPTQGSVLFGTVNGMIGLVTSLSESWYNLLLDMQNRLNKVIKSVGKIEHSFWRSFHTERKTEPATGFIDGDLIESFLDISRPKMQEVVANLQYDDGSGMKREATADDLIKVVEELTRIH

As for `CCOc1cc(-c2ccc(N3CCC(CN4CCN(C5CN(C(=O)Cc6ccc7c(c6)CN(C6CCC(=O)NC6=O)C7=O)C5)CC4)(NC(=O)c4cc(F)ccc4F)CC3)nc2)c2c(C#N)cnn2c1` (stereo not drawn) [Example 62, N-[1-(5-{3-cyano-6-ethoxypyrazolo[1,5-a]pyridin-4-yl}pyridin-2-yl)-4-{[4-(1-{2-[2-(2,6-dioxopiperidin-3-yl)-1-oxo-2,3-dihydro-1H-isoindol-5-yl]acetyl}azetidin-3-yl)piperazin-1-yl]methyl}piperidin-4-yl]-2,5-difluorobenzamide], the Dmax was in the range of 60 to 90% and the DC50 was in the range of 2 to 10 nM.

Take `CCOc1cc(-c2ccc(N3CCC(CN(C)C(=O)CCCCCCN4CCN(c5ccc6c(c5)CN(C5CCC(=O)NC5=O)C6=O)CC4)(NC(=O)c4cc(F)ccc4F)CC3)nc2)c2c(C#N)cnn2c1` (stereo not drawn) [Example 137, N-[1-(5-{3-cyano-6-ethoxypyrazolo[1,5-a]pyridin-4-yl}pyridin-2-yl)-4-[(7-{4-[2-(2,6-dioxopiperidin-3-yl)-1-oxo-2,3-dihydro-1H-isoindol-5-yl]piperazin-1-yl}-N-methylheptanamido)methyl]piperidin-4-yl]-2,5-difluorobenzamide]: the Dmax is greater than 90% and the DC50 fell in the range of 2 to 10 nM.

`CCOc1cc(-c2ccc(N3CCC(CN4CCN(C5CC6(CC(C(=O)N7CCC(c8ccc9c(c8)CN(C8CCC(=O)NC8=O)C9=O)CC7)C6)C5)CC4)(NC(=O)c4cc(F)ccc4F)CC3)nc2)c2c(C#N)cnn2c1` (stereo not drawn) [Example 95, N-[1-(5-{3-cyano-6-ethoxypyrazolo[1,5-a]pyridin-4-yl}pyridin-2-yl)-4-{[4-(6-{4-[2-(2,6-dioxopiperidin-3-yl)-1-oxo-2,3-dihydro-1H-isoindol-5-yl]piperidine-1-carbonyl}spiro[3.3]heptan-2-yl)piperazin-1-yl]methyl}piperidin-4-yl]-2,5-difluorobenzamide]: the Dmax fell in the range of 60 to 90% and the DC50 was in the range of 2 to 10 nM.

Turning to `CCOc1cc(-c2ccc(N3CCC(CN4CCN(C(=O)CCCCCN5CCC(c6ccc7c(N8CCC(=O)NC8=O)nn(C)c7c6)CC5)CC4)(NC(=O)c4cc(F)ccc4F)CC3)nc2)c2c(C#N)cnn2c1` [Example 42, N-(1-(5-(3-cyano-6-ethoxypyrazolo[1,5-a]pyridin-4-yl)pyridin-2-yl)-4-((4-(6-(4-(3-(2,4-dioxotetrahydropyrimidin-1(2H)-yl)-1-methyl-1H-indazol-6-yl)piperidin-1-yl)hexanoyl)piperazin-1-yl)methyl)piperidin-4-yl)-2,5-difluorobenzamide], the DC50 is less than 2 nM.

On to `CCOc1cc(-c2ccc(N3CCC(CN4CCN(CC5CCN(C(=O)Cc6cccc7c6CN(C6CCC(=O)NC6=O)C7=O)CC5)CC4)(NC(=O)c4cc(F)ccc4F)CC3)nc2)c2c(C#N)cnn2c1` (stereo not drawn) [Example 111, N-[1-(5-{3-cyano-6-ethoxypyrazolo[1,5-a]pyridin-4-yl}pyridin-2-yl)-4-({4-[(1-{2-[2-(2,6-dioxopiperidin-3-yl)-1-oxo-2,3-dihydro-1H-isoindol-4-yl]acetyl}piperidin-4-yl)methyl]piperazin-1-yl}methyl)piperidin-4-yl]-2,5-difluorobenzamide], for which the Dmax is 60 to 90% and the DC50 was in the range of 2 to 10 nM.

Take `CCOc1cc(-c2ccc(N3CCC(CN4CCN(C(=O)CCN5CCN(c6ccc7c(N8CCC(=O)NC8=O)nn(C)c7c6)CC5)CC4)(NC(=O)c4cc(F)ccc4F)CC3)nc2)c2c(C#N)cnn2c1` [Example 39, N-(1-(5-(3-cyano-6-ethoxypyrazolo[1,5-a]pyridin-4-yl)pyridin-2-yl)-4-((4-(3-(4-(3-(2,4-dioxotetrahydropyrimidin-1(2H)-yl)-1-methyl-1H-indazol-6-yl)piperazin-1-yl)propanoyl)piperazin-1-yl)methyl)piperidin-4-yl)-2,5-difluorobenzamide]: the Dmax fell in the range of 60 to 90% and the DC50 was less than 2 nM.

Turning to `CCOc1cc(-c2ccc(N3CCC(NC(=O)c4cc(F)ccc4F)(C(=O)NCCCCCCCCCCNc4cccc5c(N6CCC(=O)NC6=O)nn(C)c45)CC3)nc2)c2c(C#N)cnn2c1` [Example 150, 1-(5-{3-cyano-6-ethoxypyrazolo[1,5-a]pyridin-4-yl}pyridin-2-yl)-4-(2,5-difluorobenzamido)-N-(10-{[3-(2,4-dioxo-1,3-diazinan-1-yl)-1-methyl-1H-indazol-7-yl]amino}decyl)piperidine-4-carboxamide], the Dmax was greater than 90% and the DC50 lay within 10 to 100 nM.

Regarding `CCOc1cc(-c2ccc(N3CCC(COCc4cn(CCCN5CCN(c6ccc7c(c6)CN(C6CCC(=O)NC6=O)C7=O)CC5)nn4)(NC(=O)c4cc(F)ccc4F)CC3)nc2)c2c(C#N)cnn2c1` (stereo not drawn) [Example 50, N-(1-(5-(3-cyano-6-ethoxypyrazolo[1,5-a]pyridin-4-yl)pyridin-2-yl)-4-(((1-(3-(4-(2-(2,6-dioxopiperidin-3-yl)-1-oxoisoindolin-5-yl)piperazin-1-yl)propyl)-1H-1,2,3-triazol-4-yl)methoxy)methyl)piperidin-4-yl)-2,5-difluorobenzamide], the Dmax lay within 60 to 90% and the DC50 was in the range of 2 to 10 nM.

With `CCOc1cc(-c2ccc(N3CCC(CN(C(=O)CCCCN4CCN(c5ccc6c(c5)CN(C5CCC(=O)NC5=O)C6=O)CC4)C(C)C)(NC(=O)c4cc(F)ccc4F)CC3)nc2)c2c(C#N)cnn2c1` (stereo not drawn) [Example 164, N-[1-(5-{3-cyano-6-ethoxypyrazolo[1,5-a]pyridin-4-yl}pyridin-2-yl)-4-[(5-{4-[2-(2,6-dioxopiperidin-3-yl)-1-oxo-2,3-dihydro-1H-isoindol-5-yl]piperazin-1-yl}-N-(propan-2-yl)pentanamido)methyl]piperidin-4-yl]-2,5-difluorobenzamide], the Dmax is greater than 90% and the DC50 lay in the range of 2 to 10 nM.

Turning to `CCOc1cc(-c2ccc(N3CCC(CN4CC5(C4)CN(C(=O)CCN4CCC(c6ccc7c(c6)CN(C6CCC(=O)NC6=O)C7=O)CC4)C5)(NC(=O)c4cc(F)ccc4F)CC3)nc2)c2c(C#N)cnn2c1` (stereo not drawn) [Example 89, N-[1-(5-{3-cyano-6-ethoxypyrazolo[1,5-a]pyridin-4-yl}pyridin-2-yl)-4-{[6-(3-{4-[2-(2,6-dioxopiperidin-3-yl)-1-oxo-2,3-dihydro-1H-isoindol-5-yl]piperidin-1-yl}propanoyl)-2,6-diazaspiro[3.3]heptan-2-yl]methyl}piperidin-4-yl]-2,5-difluorobenzamide], the Dmax is greater than 90% and the DC50 lay within 10 to 100 nM.

Consider `CCOc1cc(-c2ccc(N3CCC(CN4CCN(C(=O)CCCCCCNC(=O)COc5cccc6c5CN(C5CCC(=O)NC5=O)C6=O)CC4)(NC(=O)c4cc(F)ccc4F)CC3)nc2)c2c(C#N)cnn2c1` (stereo not drawn) [Example 27, N-[1-(5-{3-cyano-6-ethoxypyrazolo[1,5-a]pyridin-4-yl}pyridin-2-yl)-4-({4-[7-(2-{[2-(2,6-dioxopiperidin-3-yl)-1-oxo-2,3-dihydro-1H-isoindol-4-yl]oxy}acetamido)heptanoyl]piperazin-1-yl}methyl)piperidin-4-yl]-2,5-difluorobenzamide], for which the Dmax lay in the range of 60 to 90% and the DC50 fell in the range of 2 to 10 nM.
